Measurements published in ChEMBL document CHEMBL1201862, “PubChem BioAssay data set” (2004).
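Assay format: 96-well plates, 48-hour exposure. Abbreviation: GI50, concentration required for 50% inhibition of growth.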 Calls of active or inactive are those of the source. Cut-off read from the data, not from the text of the source: active = GI50 up to about 1.1 µM and inactive = higher.

Legend:
Assay in all cases: NCI-60 cell line screen, 48 h
A498 = test system: A498
ACHN = test system: ACHN
BT-549 = test system: BT-549
CAKI-1 = test system: CAKI-1
HOP-62 = test system: HOP-62
HOP-92 = test system: HOP-92
K562 = test system: K562
MDA-N = test system: MDA-N
NCI-H522 = test system: NCI-H522
OVCAR-5 = test system: OVCAR-5
OVCAR-8 = test system: OVCAR-8
PC-3 = test system: PC-3
RPMI-8226 = test system: RPMI-8226
RXF 393 = test system: RXF 393
SF-268 = test system: SF-268
SF-539 = test system: SF-539
SK-OV-3 = test system: SK-OV-3
SN12C = test system: SN12C
T47D = test system: T47D
CCRF-CEM = test system: CCRF-CEM

Measured: GI50

COc1ncnc2c(Cl)c(C(O)c3ccccc3)c(Cl)cc12 (stereo not given)
inactive: A498 19.7 µM | ACHN 26.4 µM | BT-549 20.6 µM | CAKI-1 34.7 µM | HOP-62 15.2 µM | HOP-92 15.7 µM | K562 14.9 µM | MDA-N 5.16 µM | NCI-H522 31.3 µM | OVCAR-5 60.5 µM | OVCAR-8 30.5 µM | PC-3 27.4 µM | RPMI-8226 18.7 µM | RXF 393 15.5 µM | SF-268 21 µM | SF-539 20.6 µM | SK-OV-3 19.5 µM | SN12C 28.1 µM | T47D 40.1 µM

CCC1=NC(N/N=C/c2ccco2)=N/C1=C\c1ccccc1O
inactive: A498 68.9 µM | ACHN 21.9 µM | BT-549 29.4 µM | CAKI-1 > 100 µM | CCRF-CEM 12.7 µM | HOP-62 76.4 µM | HOP-92 70 µM | K562 56.5 µM | MDA-N 50.4 µM | NCI-H522 21.8 µM | OVCAR-5 78.7 µM | OVCAR-8 25.4 µM | PC-3 31.2 µM | RPMI-8226 31.9 µM | RXF 393 82.4 µM | SF-268 21.8 µM | SK-OV-3 47 µM | SN12C > 100 µM | T47D 48.9 µM

OC(c1ccc(Br)cc1)(c1cccs1)C1CC1 (stereo not given)
inactive: A498 21.5 µM | ACHN 27 µM | BT-549 24.4 µM | CAKI-1 20.8 µM | CCRF-CEM 26.2 µM | HOP-62 23.3 µM | HOP-92 19.7 µM | K562 29.9 µM | MDA-N 20.7 µM | NCI-H522 18.5 µM | OVCAR-5 26.7 µM | OVCAR-8 24.4 µM | PC-3 22.8 µM | RPMI-8226 21.6 µM | RXF 393 18.6 µM | SF-268 20.7 µM | SF-539 21.4 µM | SK-OV-3 36.4 µM | T47D 22.8 µM

O=C(NC1(C(=O)O)CC1c1ccccc1)c1ccccc1 (stereo not given)
inactive: A498 > 100 µM | ACHN > 100 µM | BT-549 > 100 µM | CAKI-1 > 100 µM | HOP-62 > 100 µM | HOP-92 > 100 µM | K562 > 100 µM | MDA-N > 100 µM | NCI-H522 > 100 µM | OVCAR-5 > 100 µM | OVCAR-8 > 100 µM | PC-3 > 100 µM | RPMI-8226 > 100 µM | RXF 393 > 100 µM | SF-268 > 100 µM | SF-539 > 100 µM | SK-OV-3 > 100 µM | SN12C > 100 µM | T47D > 100 µM

O=S(=O)(c1cc(Cl)ccc1Cl)N1CCN(c2cccc(Cl)c2)CC1
inactive: A498 > 100 µM | ACHN > 100 µM | BT-549 > 100 µM | CAKI-1 > 100 µM | CCRF-CEM > 100 µM | HOP-62 > 100 µM | HOP-92 > 100 µM | K562 67 µM | MDA-N 59.2 µM | NCI-H522 > 100 µM | OVCAR-5 > 100 µM | OVCAR-8 > 100 µM | PC-3 > 100 µM | RPMI-8226 > 100 µM | RXF 393 > 100 µM | SF-268 > 100 µM | SF-539 > 100 µM | SN12C > 100 µM | T47D > 100 µM

CCOP(=O)(OCC)/C(C#N)=C/c1ccc(-c2ccc(F)cc2F)o1
inactive: A498 15.1 µM | ACHN 13.3 µM | BT-549 11.7 µM | CAKI-1 15.3 µM | CCRF-CEM 14.6 µM | HOP-62 19.2 µM | HOP-92 15.2 µM | K562 12.2 µM | MDA-N 33.7 µM | NCI-H522 15.3 µM | OVCAR-5 17.3 µM | OVCAR-8 15.2 µM | PC-3 10.8 µM | RPMI-8226 18.4 µM | RXF 393 29 µM | SF-268 17.3 µM | SF-539 20.7 µM | SK-OV-3 14 µM | SN12C 15.8 µM | T47D 3.3 µM

CCCN1C(=O)CC(C)N(Cc2ccccc2Cl)C1=S (stereo not given)
inactive: A498 14.2 µM | ACHN 24.5 µM | BT-549 24.4 µM | CAKI-1 36.9 µM | CCRF-CEM 44.5 µM | HOP-62 35.4 µM | HOP-92 24.2 µM | MDA-N 21.5 µM | NCI-H522 21.1 µM | OVCAR-5 50.2 µM | OVCAR-8 27.2 µM | PC-3 22.8 µM | RPMI-8226 24.8 µM | RXF 393 3.9 µM | SF-268 24.4 µM | SF-539 16 µM | SK-OV-3 31.9 µM | SN12C 30.6 µM | T47D 10.6 µM

COc1ccc(CC[N+]2(C)COc3cc4oc(=O)cc(C)c4cc3C2)cc1OC (stereo not given)
inactive: A498 > 100 µM | ACHN > 100 µM | BT-549 > 100 µM | CAKI-1 > 100 µM | CCRF-CEM > 100 µM | HOP-62 > 100 µM | HOP-92 > 100 µM | K562 2.45 µM | MDA-N > 100 µM | NCI-H522 > 100 µM | OVCAR-5 > 100 µM | OVCAR-8 > 100 µM | PC-3 > 100 µM | RPMI-8226 > 100 µM | RXF 393 > 100 µM | SF-268 > 100 µM | SK-OV-3 > 100 µM | SN12C > 100 µM | T47D > 100 µM

Cc1ccc(OCCn2cc(Nc3ccccc3)c(=O)[nH]c2=O)cc1
inactive: A498 > 100 µM | ACHN > 100 µM | BT-549 > 100 µM | CAKI-1 > 100 µM | CCRF-CEM > 100 µM | HOP-92 > 100 µM | K562 > 100 µM | MDA-N > 100 µM | NCI-H522 > 100 µM | OVCAR-5 > 100 µM | OVCAR-8 > 100 µM | PC-3 > 100 µM | RPMI-8226 > 100 µM | RXF 393 > 100 µM | SF-268 > 100 µM | SF-539 > 100 µM | SN12C > 100 µM | T47D > 100 µM

COc1ccc(/C=C/C(=O)N[C@@H]2C(=O)N3[C@@H]2SC(C)(C)[C@@H]3C(=O)O)cc1OC
inactive: A498 > 100 µM | ACHN > 100 µM | BT-549 > 100 µM | CAKI-1 > 100 µM | CCRF-CEM > 100 µM | HOP-62 > 100 µM | HOP-92 > 100 µM | K562 > 100 µM | MDA-N > 100 µM | NCI-H522 85.5 µM | OVCAR-5 > 100 µM | OVCAR-8 > 100 µM | PC-3 > 100 µM | RPMI-8226 > 100 µM | RXF 393 > 100 µM | SF-268 > 100 µM | SF-539 > 100 µM | SK-OV-3 > 100 µM | SN12C > 100 µM | T47D > 100 µM

Cc1cccc(Nc2cc(Cl)nc(SCC(=O)O)n2)c1C [PIRINIXIC ACID]
inactive: A498 > 100 µM | ACHN > 100 µM | BT-549 > 100 µM | CAKI-1 > 100 µM | CCRF-CEM > 100 µM | HOP-62 > 100 µM | HOP-92 > 100 µM | K562 87.5 µM | MDA-N > 100 µM | NCI-H522 > 100 µM | OVCAR-5 > 100 µM | OVCAR-8 > 100 µM | PC-3 > 100 µM | RPMI-8226 97.7 µM | RXF 393 > 100 µM | SF-539 > 100 µM | SK-OV-3 > 100 µM | SN12C > 100 µM | T47D > 100 µM
